# Results taken from patent US6921763B2, “Pyrazolopyrimidines as therapeutic agents” (Abbott Laboratories, priority 1999, dated 2005).
row,melting point,Compound
1,173 to 175 °C,Nc1ncnc2c1c(-c1ccc(Oc3ccccc3)cc1)nn2[C@H]1CC[C@@H](N2CCNCC2)CC1.O=C(O)/C=C\C(=O)O.O=C(O)/C=C\C(=O)O.O=C(O)/C=C\C(=O)O
2,200 to 202.5 °C,Nc1ncnc2c1c(-c1ccc(Oc3ccccc3)cc1)nn2C1CCC2(CC1)OCCO2
3,187 to 187.5 °C,Nc1ncnc2c1c(-c1ccc(Oc3ccccc3)cc1)nn2C1CCOCC1
4,153 to 155 °C,Nc1ncnc2c1c(-c1ccc(Oc3ccccc3)cc1)nn2[C@H]1CC[C@H](N2CCNCC2)CC1.O=C(O)/C=C\C(=O)O.O=C(O)/C=C\C(=O)O.O=C(O)/C=C\C(=O)O
